Paper doi:10.64898/2026.05.07.723658, “Substrate-dependent crosslinking by the cytochrome P450 from aminopyruvatide biosynthesis” (bioRxiv, 2026)
Where a SMILES comes first, the peptide text is derived from it. The star is where a group is joined. For = O=C*

What was measured:
[1] = target: T1, main protease from SARS-CoV-2 virus (Mpro) (Severe acute respiratory syndrome coronavirus 2, UniProt P0DTD1); format: biochemical
T1 construct: Cayman chemical) was used; purchased Cayman chemical 701960

chymotrypsin = target: T2, chymotrypsin (Bos taurus, UniProt P00766); format: biochemical
T2 construct: purchased Promega V1061

trypsin = target: T3, trypsin (Sus scrofa, UniProt P00761); format: biochemical
T3 construct: purchased Promega V5111

[2] = target: T4, angiotensin I-converting enzyme (ACE) (Oryctolagus cuniculus, UniProt P12822); assay: biochemical; details: 15 min preincubation at room temperature; substrate Abz-FRK(Dnp)-P-OH; 37 °C
T4 construct: purchased Sigma A6778
T4 sequence (P12822 34-1310): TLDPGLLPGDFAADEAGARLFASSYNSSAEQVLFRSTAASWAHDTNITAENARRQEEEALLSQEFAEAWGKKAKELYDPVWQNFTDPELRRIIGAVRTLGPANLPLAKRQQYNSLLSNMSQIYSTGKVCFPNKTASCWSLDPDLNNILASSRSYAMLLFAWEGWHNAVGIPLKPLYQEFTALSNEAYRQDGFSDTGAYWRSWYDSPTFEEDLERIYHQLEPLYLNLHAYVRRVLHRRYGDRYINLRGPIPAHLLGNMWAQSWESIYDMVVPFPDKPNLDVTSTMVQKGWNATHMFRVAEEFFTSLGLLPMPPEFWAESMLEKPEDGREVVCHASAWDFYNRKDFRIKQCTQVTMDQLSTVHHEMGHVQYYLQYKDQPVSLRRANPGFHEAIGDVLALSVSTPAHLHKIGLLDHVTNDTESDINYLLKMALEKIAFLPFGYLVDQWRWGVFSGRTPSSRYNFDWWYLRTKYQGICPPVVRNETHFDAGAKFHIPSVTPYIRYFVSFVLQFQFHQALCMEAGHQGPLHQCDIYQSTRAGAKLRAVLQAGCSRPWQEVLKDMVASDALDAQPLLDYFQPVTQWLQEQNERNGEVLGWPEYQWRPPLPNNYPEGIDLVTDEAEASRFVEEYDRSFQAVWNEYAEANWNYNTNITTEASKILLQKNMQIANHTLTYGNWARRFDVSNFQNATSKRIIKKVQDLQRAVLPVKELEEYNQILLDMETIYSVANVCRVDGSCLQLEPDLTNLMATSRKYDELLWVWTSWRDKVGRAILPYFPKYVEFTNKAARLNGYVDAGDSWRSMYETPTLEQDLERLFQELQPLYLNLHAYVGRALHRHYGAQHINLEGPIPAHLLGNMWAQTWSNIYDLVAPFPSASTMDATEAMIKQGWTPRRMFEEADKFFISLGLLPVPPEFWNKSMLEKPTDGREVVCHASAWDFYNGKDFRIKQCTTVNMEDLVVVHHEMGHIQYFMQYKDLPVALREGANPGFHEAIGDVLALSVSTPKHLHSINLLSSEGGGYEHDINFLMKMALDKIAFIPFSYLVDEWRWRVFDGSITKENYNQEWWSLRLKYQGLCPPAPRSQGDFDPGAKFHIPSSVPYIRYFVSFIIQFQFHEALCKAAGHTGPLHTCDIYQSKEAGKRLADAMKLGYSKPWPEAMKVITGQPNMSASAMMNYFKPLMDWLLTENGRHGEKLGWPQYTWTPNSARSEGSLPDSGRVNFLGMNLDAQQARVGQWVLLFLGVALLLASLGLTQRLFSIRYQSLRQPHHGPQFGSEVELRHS

T3 sequence (P00761 9-231): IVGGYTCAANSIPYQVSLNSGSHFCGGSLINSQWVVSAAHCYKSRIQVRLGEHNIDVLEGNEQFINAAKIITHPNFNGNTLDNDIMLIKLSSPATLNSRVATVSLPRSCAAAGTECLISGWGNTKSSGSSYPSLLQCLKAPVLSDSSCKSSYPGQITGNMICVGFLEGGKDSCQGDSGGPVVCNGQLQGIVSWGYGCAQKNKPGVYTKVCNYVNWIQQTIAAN

SMILES: CSCC[C@H](NC=O)C(=O)N[C@@H](CCCCN)C(=O)N[C@@H](CCSC)C(=O)NCC(=O)N[C@@H](CCC(=O)O)C(=O)NCC(=O)N[C@@H](Cc1ccc(O)cc1)C(=O)N[C@@H](CC(C)C)C(=O)N[C@@H](Cc1ccc(O)cc1)C(=O)N[C@@H](CC(=O)O)C(=O)O [R1K] (For-MKMGEGYLYD-OH)
- conversion by ApyO (cytochrome P450 ApyO): ~ 8%

SMILES: CSCC[C@H](NC=O)C(=O)N[C@@H](CCCNC(=N)N)C(=O)N[C@@H](CCSC)C(=O)NCC(=O)N[C@@H](CCC(=O)O)C(=O)NCC(=O)N[C@@H](Cc1ccc(O)cc1)C(=O)N[C@H](C(=O)N[C@@H](Cc1ccc(O)cc1)C(=O)N[C@@H](CC(=O)O)C(=O)O)C(C)C [L7V] (For-MRMGEGYVYD-OH)
- conversion by ApyO (cytochrome P450 ApyO): ~ 57%

SMILES: CSCC[C@H](NC=O)C(=O)N[C@@H](CCCNC(=N)N)C(=O)N[C@@H](CCSC)C(=O)NCC(=O)N[C@@H](CCC(=O)O)C(=O)NCC(=O)N[C@@H](Cc1ccc(O)cc1)C(=O)N[C@@H](Cc1ccc(O)cc1)C(=O)N[C@@H](Cc1ccc(O)cc1)C(=O)N[C@@H](CC(=O)O)C(=O)O [L7Y] (For-MRMGEGYYYD-OH)
- conversion by ApyO (cytochrome P450 ApyO): near quantitative

SMILES: CSCC[C@H](NC=O)C(=O)N[C@@H](CCCNC(=N)N)C(=O)N[C@@H](CCSC)C(=O)NCC(=O)N[C@@H](CCC(=O)O)C(=O)NCC(=O)N[C@@H](Cc1ccc(O)cc1)C(=O)N[C@H](C(=O)N[C@@H](Cc1ccc(O)cc1)C(=O)N[C@@H](CC(=O)O)C(=O)O)[C@@H](C)O [L7T] (For-MRMGEGYTYD-OH)
- conversion by ApyO (cytochrome P450 ApyO): ~ 3%

SMILES: CSCC[C@H](NC=O)C(=O)N[C@@H](CCCNC(=N)N)C(=O)N[C@@H](CCSC)C(=O)NCC(=O)N[C@@H](CCC(=O)O)C(=O)NCC(=O)N[C@@H](Cc1ccc(O)cc1)C(=O)NCC(=O)N[C@@H](Cc1ccc(O)cc1)C(=O)N[C@@H](CC(=O)O)C(=O)O [L7G] (For-MRMGEGYGYD-OH)
- conversion by ApyO (cytochrome P450 ApyO): ~ 1%

SMILES: CC(C)C[C@@H]1NC(=O)[C@@H](NC(=O)CN)Cc2ccc(O)c(c2)-c2cc(ccc2O)C[C@@H](C(=O)N[C@@H](C)C(=O)C(=O)O)NC1=O [desmethylaminopyruvatide A]
- inhibition of Mpro [1]: No inhibition
- inhibition of chymotrypsin (chymotrypsin): No inhibition
- inhibition of trypsin (trypsin): No inhibition

SMILES: NCC(=O)N[C@H]1Cc2ccc(O)c(c2)Oc2ccc(cc2)C[C@@H](C(=O)N[C@@H](CC(=O)O)C(=O)O)NC(=O)[C@H](Cc2ccc(O)cc2)NC1=O (single isomer, unassigned) [L7Y isomer-2]
- IC50 [2]: 1100 nM

SMILES: CC[C@H](C)[C@H](NC(=O)[C@H](Cc1ccc(O)cc1)NC(=O)CNC(=O)[C@H](CCC(=O)O)NC(=O)CNC(=O)[C@H](CCSC)NC(=O)[C@H](CCCNC(=N)N)NC(=O)[C@H](CCSC)NC=O)C(=O)N[C@@H](Cc1ccc(O)cc1)C(=O)N[C@@H](CC(=O)O)C(=O)O [L7I] (For-MRMGEGYIYD-OH)
- conversion by ApyO (cytochrome P450 ApyO): ~ 60%

SMILES: CSCC[C@H](NC=O)C(=O)N[C@@H](CCCNC(=N)N)C(=O)N[C@@H](CCSC)C(=O)NCC(=O)N[C@@H](CCC(=O)O)C(=O)NCC(=O)N[C@@H](Cc1ccc(O)cc1)C(=O)N[C@@H](Cc1c[nH]c2ccccc12)C(=O)N[C@@H](Cc1ccc(O)cc1)C(=O)N[C@@H](CC(=O)O)C(=O)O [L7W] (For-MRMGEGYWYD-OH)
- conversion by ApyO (cytochrome P450 ApyO): ~ 39%

SMILES: CSCC[C@H](NC=O)C(=O)N[C@@H](CCCNC(=N)N)C(=O)N[C@@H](CCSC)C(=O)NCC(=O)N[C@@H](CCC(=O)O)C(=O)NCC(=O)N[C@@H](Cc1ccc(O)cc1)C(=O)N[C@@H](CC(C)C)C(=O)N[C@@H](Cc1ccc(O)cc1)C(=O)N[C@@H](CC(=O)O)C(=O)O [ApyAct, MRMGEGYLYD] (For-MRMGEGYLYD-OH)
- conversion by ApyO (cytochrome P450 ApyO): about 70%

SMILES: CSCC[C@H](NC=O)C(=O)N[C@@H](CCCNC(=N)N)C(=O)N[C@@H](CCSC)C(=O)NCC(=O)N[C@@H](CCC(=O)O)C(=O)NCC(=O)N[C@@H](Cc1ccc(O)cc1)C(=O)N[C@@H](Cc1ccccc1)C(=O)N[C@@H](Cc1ccc(O)cc1)C(=O)N[C@@H](CC(=O)O)C(=O)O [L7F] (For-MRMGEGYFYD-OH)
- conversion by ApyO (cytochrome P450 ApyO): ~ 8%
